In one assay the test system is antigen-presenting cells. The conditions noted are these: cited from earlier work.
A further assay relates to T-cell. The conditions noted are these: in the context of a primary T-cell receptor stimulus; cited from earlier work.
For assay [1] the following is noted: in vivo; cited from earlier work.
In assay [2] the test system is syngeneic colon carcinoma cell line MC-38. Description: MC38 syngeneic tumor model, birinapant or LCL161 pretreatment then anti-PD-L1 (Example 3). Format: in vivo, C57BL/6J mice. As to the method:
72 adult female C57BL/6J mice (obtained from Shanghai Lingchang Bio-Technology Co.) were inoculated subcutaneously at the right lower flank with 1×10^6 cells of the syngeneic colon carcinoma cell line MC-38 in 0.1 ml of PBS. Tumor volumes were measured three times weekly in two dimensions using a caliper, and the volume was expressed in mm^3 using the formula: V=(L×W×W)/2, where V is tumor volume, L is tumor length (the longest tumor dimension) and W is tumor width (the longest tumor dimension perpendicular to L). All animals were randomly allocated to the 9 different study groups with a mean tumor size of 52 mm^3 based on the “Matched distribution” randomization method (StudyDirector™ software, version 3.1.399.19) and treatments started (denoted as day 1). Dosing as well as tumor and body weight measurement were conducted in a Laminar Flow Cabinet.
On day 1, part of the animals received either a 1 week pretreatment consisting of i.p. SMAC mimetic birinapant at a dose of 30 mg/kg, or its vehicle, in a biweekly schedule as indicated in Table 2. The other part of the animals received either a 1 week pretreatment consisting of p.o. SMAC mimetic LCL161 at a dose of 75 mg/kg, or its vehicle, in a biweekly schedule as indicated in Table 2.
On day 8, vehicle or SMAC mimetic pretreated animals were then further treated until study end with either biweekly i.p. 10 mg/kg of control antibody rlgG2b (Clone: LTF-2, BioXcell), or biweekly i.p. 10 mg/kg of anti-PD-L1 antibody (Mouse surrogate antibody, anti-mouse PD-L1, Clone: 10F.9G2, BioXcell). 1 group of animals that had received 1 week of birinapant pretreatment, and 1 group of animals that had received 1 week of LCL161 pretreatment, were each continued on the respective SMAC mimetic during the period of anti-PD-L1 treatment until study end.

For assay [3], the system named is advanced treatment-refractory NSCLC. The following applies: advanced treatment-refractory NSCLC patients; cited from earlier work.
The test system of a further assay is RCC. The following applies: RCC patients; cited from earlier work.
Another assay relates to melanoma. The conditions noted are these: melanoma patients; cited from earlier work.

“Also recorded” adds a separate entry of the source. Numbered stars: 1 amine (or outer) side, 2 acyl side, 3 side chain; on linkers, the order of the positions; unused ones are H or OH. Bridge positions count the residues as written; N and C are the ends. Square brackets hold non-standard residues; d marks the D form. Peptide text beside a SMILES is read from it. I, II: the chains in the order shown. Hexamethylenediamine = C(CCCN[*:2])CCN[*:1]; Dip = N[C@H](C(=O)O)C(c1ccccc1)c1ccccc1; Chg = N[C@H](C(=O)O)C1CCCCC1; NMeA = CN[C@@H](C)C(=O)O

`CN[C@@H](C)C(=O)N[C@H](C(=O)N1CCC[C@H]1C(=O)N[C@H](C(=O)NCCCCCCNC(=O)[C@@H](NC(=O)[C@@H]1CCCN1C(=O)[C@@H](NC(=O)[C@H](C)NC)C1CCCCC1)C(c1ccccc1)c1ccccc1)C(c1ccccc1)c1ccccc1)C1CCCCC1` [BV6] (I: H-[NMeA][Chg]P[Dip] / II: H-[NMeA][Chg]P[Dip]; linker I:C-II:C via Hexamethylenediamine): the “function of antigen-presenting cells (dendritic cell maturation, type-II to type-I macrophage conversion)” value in the assay on antigen-presenting cells is recorded as “modulate the function of antigen-presenting cells”.

`CN[C@@H](C)C(=O)N[C@H](C(=O)N1CC[C@H]2CCN(CCc3ccccc3)C[C@H]21)C1CCCCC1` [LBW242]: the “anti-tumor immune responses (T-cell proliferation, co-stimulation, activation)” value with T-cell was “increase anti-tumor immune responses”. In addition, the “efficacy in a prophylactic cancer vaccine model” value in assay [1] is “enhanced efficacy”.

For `CN[C@@H](C)C(=O)N[C@H](C(=O)N1CCC[C@H]1c1nc(C(=O)c2ccc(F)cc2)cs1)C1CCCCC1` [LCL161], the “anti-cancer effect (median tumor volume)” value was “modest anti-cancer effect” in assay [2] (LCL161 75 mg/kg p.o. BIW 1 week pretreatment alone, then control antibody rlgG2b (group 7)); “small additional benefit to LCL161 pretreatment alone; also recorded: sensitizes MC38 tumors to a subsequent treatment with an anti-PD-L1 antibody” in assay [2] (LCL161 75 mg/kg p.o. BIW 1 week pretreatment, then anti-PD-L1 10 mg/kg i.p. BIW (group 8)); “significant additional benefit” in assay [2] (LCL161 pretreatment, then anti-PD-L1 plus continued LCL161 (group 9)).

For the compound `CC[C@H](NC(=O)[C@H](C)NC)C(=O)N1C[C@@H](O)C[C@H]1Cc1c(-c2[nH]c3cc(F)ccc3c2C[C@@H]2C[C@H](O)CN2C(=O)[C@H](CC)NC(=O)[C@H](C)NC)[nH]c2cc(F)ccc12` [birinapant], the “anti-cancer effect (median tumor volume)” value in assay [2] (birinapant 30 mg/kg i.p. BIW 1 week pretreatment alone, then control antibody rlgG2b (group 2)) is “modest anti-cancer effect”; in assay [2] (birinapant 30 mg/kg i.p. BIW 1 week pretreatment, then anti-PD-L1 10 mg/kg i.p. BIW (group 4)), “singificant anti-cancer effect; also recorded: sensitizes MC38 tumors to a subsequent treatment with an anti-PD-L1 antibody”; in assay [2] (birinapant pretreatment, then anti-PD-L1 plus continued birinapant (group 5), compared with group 4), “small additional benefit”. For the same compound, in the assay on antigen-presenting cells, the “function of antigen-presenting cells (dendritic cell maturation, type-II to type-I macrophage conversion)” value is on record as “modulate the function of antigen-presenting cells”.

As for “Nivolumab: fully human IgG4 anti-PD-1 monoclonal antibody from Bristol-Myers Squibb/Ono Pharmaceuticals”, the Objective response rate in assay [3] is given as 17%; with RCC, 20%; in the assay on melanoma, 31%. In addition, the Overall survival in assay [3] is listed as 9.9 months; in the assay with RCC, 22.4 months; in the assay on melanoma, 16.8 months.

The record behind these values is patent US20210093645A1, “COMBINATION ANTI CANCER THERAPY WITH AN IAP ANTAGONIST AND AN ANTI PD-1 MOLECULE” (Debiopharm International S.A., priority 2017, published 2021).
